Measurements as given in US10329315B2, “Glycosphingolipids and methods of use thereof” (The Brigham and Women's Hospital, Inc., priority 2012, dated 2019).

Test system: iNKT hybridoma 24.7
Assay: iNKT cell activation in co-culture of BMDCs and iNKT hybridoma 24.7, IL-2 by ELISA
Type: cell-based
Conditions: incubated with BMDCs 4 hours, then iNKT hybridoma 24.7 for 24 hours
Description: Experiments were performed to determine whether fractions of B. fragilis sphingolipids are immunostimulatory (agonists) to iNKT cells. Lipid fractions were extracted from BF membranes, incubated with bone marrow dendritic cells (BMDCs) for 4 hours, and then co-incubated with iNKT hybridoma 24.7 for 24 hours. IL-2 was measured by ELISA as a readout of iNKT cell activation. KRN7000 refers to the known immunostimulatory alpha-GC. Cer-SL refers to the ceramide sphingolipid fraction. PE-SL refers to the phosphoethanolamine sphingolipid fraction. GL-SL refers to the glycosphingolipid fraction. C17 minor refers to alpha-GC having a C17 ceramide chain length. […] As expected, KRN7000 was stimulatory.
Further studies confirmed that alpha-GC-Bf717 was detectable only in fecal samples from BFWT mice and not in samples from BFΔSPT mice. The estimated yield of alpha-GC-Bf717 was about 1 ng per gram of fecal pellet. To confirm that alpha-GC-Bf717 had antagonistic activity, co-cultures similar to those described above for bulk GL-SL fractions were performed.

CCCCCCCCCCCCCCCCCCCCCCCCCC(=O)N[C@@H](CO[C@H]1O[C@H](CO)[C@H](O)[C@H](O)[C@H]1O)[C@H](O)[C@H](O)CCCCCCCCCCCCCC [KRN7000]
iNKT cell activation (IL-2): stimulatory
